Assay results published in US9326973B2, “Hepatitis C virus inhibitors” (priority 2012, dated 2016).

Tested on: HCV replicon, genotype-1a variant with glutamine 30 changed to glutamate in the NS5A protein
Assay: microbe, parasite or virus in culture
Assay type: cell-based, HCV genotype 1a
Conditions: HCV replicon genotype 1a Q30E (Q→E) variant; test compound titrated with an NS5A-targeting compound (BMS-790052 fixed at 200 nM); ranking of synergist activity
Method in brief: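 Synergy was assessed by combining several fixed amounts of an NS5A-targeting compound with a titration of the second compound of interest.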

SMILES | Fold-Synergistic 1a (Q30E) [fold]
Cc1ncccc1C(=O)N1CCC[C@H]1c1ncc(-c2ccc(-c3ccc(-c4cnc([C@@H]5CCCN5C(=O)c5cccnc5C)[nH]4)cc3)cc2)[nH]1 [Compound S-188] | <10
CC1(C(=O)N[C@H](c2nc(-c3ccc(-c4ccc(-c5c[nH]c([C@@H](NC(=O)C6(C)CCCO6)C(C)(C)C)n5)cc4)cc3)c[nH]2)C(C)(C)C)CCCO1 (stereo partly drawn) [Compound L-69] | >100
CC(C)[C@H](NC(=O)[C@@]1(C)CCC(F)(F)CO1)c1nc(-c2ccc(-c3ccc(-c4c[nH]c([C@@H](NC(=O)[C@@]5(C)CCC(F)(F)CO5)C(C)C)n4)cc3)cc2)c[nH]1 [Compound Y-78] | >100
CC(C)(C)OC(=O)N1CC(F)(F)C[C@H]1C(=O)N[C@H](c1nc(-c2ccc(-c3ccc(-c4c[nH]c([C@@H](NC(=O)[C@@H]5CC(F)(F)CN5C(=O)OC(C)(C)C)C(C)(C)C)n4)cc3)cc2)c[nH]1)C(C)(C)C [Compound W-88] | >100
CC(C)[C@H](NC(=O)C1(C)CCCC1)c1nc(-c2ccc3c(c2)Cc2cc(-c4c[nH]c([C@@H](NC(=O)C5(C)CCCC5)C(C)C)n4)ccc2-3)c[nH]1 [Compound N-72] | >100
CC(C)[C@@H](O)C(=O)N[C@H](c1nc(-c2ccc(-c3ccc(-c4c[nH]c([C@@H](NC(=O)[C@H](O)C(C)C)C(C)(C)C)n4)cc3)cc2)c[nH]1)C(C)(C)C [Compound L-82] | >100
CC(=O)N(C)C1(C(=O)N[C@H](c2nc(-c3ccc(-c4ccc(-c5c[nH]c([C@@H](NC(=O)C6(N(C)C(C)=O)CC6)C(C)(C)C)n5)cc4)cc3)c[nH]2)C(C)(C)C)CC1 [Compound L-11] | >100
COC(=O)N[C@@H](C(=O)NC1(c2nc(-c3ccc(-c4ccc(-c5c[nH]c(C6(NC(=O)[C@H](NC(=O)OC)C(C)C)CCCC6)n5)cc4)cc3)c[nH]2)CCCC1)C(C)C [Compound N-13] | <10
COC(=O)N[C@H](C(=O)N[C@H](c1nc(-c2ccc3cc(-c4ccc(-c5cnc([C@@H](NC(=O)[C@@H](NC(=O)OC)C(C)C)C(C)(C)C)[nH]5)cc4)ccc3c2)c[nH]1)C(C)(C)C)C(C)C [Compound N-7] | <10
O=C(c1cccc(Oc2ccccc2)c1)N1CCC[C@H]1c1ncc(-c2ccc(-c3ccc(-c4cnc([C@@H]5CCCN5C(=O)c5cccc(Oc6ccccc6)c5)[nH]4)cc3)cc2)[nH]1 [Compound S-116] | <10
CC(C)(C)[C@H](Nc1nc(C(F)(F)F)c(Cl)s1)c1nc(-c2ccc(-c3ccc(-c4c[nH]c([C@@H](Nc5nc(C(F)(F)F)c(Cl)s5)C(C)(C)C)n4)cc3)cc2)c[nH]1 [Compound W-180] | <10
CCC(F)(F)C(=O)N[C@H](c1nc(-c2ccc(-c3ccc(-c4c[nH]c([C@@H](NC(=O)C(F)(F)CC)C(C)(C)C)n4)cc3)cc2)c[nH]1)C(C)(C)C [Compound S-284] | >100
CC1([C@H](NC(=O)C(=O)N2CCC(C(F)(F)F)CC2)c2nc(-c3ccc(-c4ccc(-c5c[nH]c([C@@H](NC(=O)C(=O)N6CCC(C(F)(F)F)CC6)C6(C)CC6)n5)cc4)cc3)c[nH]2)CC1 [Compound W-59] | >100
CCN(CC1CC1)C(=O)C(C)(C)C(=O)N[C@H](c1nc(-c2ccc(-c3ccc(-c4c[nH]c([C@@H](NC(=O)C(C)(C)C(=O)N(CC)CC5CC5)C(C)(C)C)n4)cc3)cc2)c[nH]1)C(C)(C)C [Compound W-156] | >100
CC(C)(C)[C@H](NC(=O)C(F)(F)c1ccccc1)c1nc(-c2ccc(-c3ccc(-c4c[nH]c([C@@H](NC(=O)C(F)(F)c5ccccc5)C(C)(C)C)n4)cc3)cc2)c[nH]1 [Compound S-282] | >100
CC(C)(C)OC(=O)N1C[C@@H](O)C[C@H]1C(=O)N[C@H](c1nc(-c2ccc(-c3ccc(-c4c[nH]c([C@@H](NC(=O)[C@@H]5C[C@H](O)CN5C(=O)OC(C)(C)C)C5(C)CC5)n4)cc3)cc2)c[nH]1)C1(C)CC1 [Compound W-99] | >100
CC(C)N(C(=O)C(=O)N[C@H](c1nc(-c2ccc(-c3ccc(-c4c[nH]c([C@@H](NC(=O)C(=O)N(C(C)C)C5CC5)C(C)(C)C)n4)cc3)cc2)c[nH]1)C(C)(C)C)C1CC1 [Compound W-49] | >100
CC(C)(C)[C@H](NC(=O)C1CCCCS1)c1nc(-c2ccc(-c3ccc(-c4c[nH]c([C@@H](NC(=O)C5CCCCS5)C(C)(C)C)n4)cc3)cc2)c[nH]1 (some centres unmarked) [Compound P-173] | >100
CC(C)N(CC(F)(F)F)C(=O)C(=O)N[C@H](c1nc(-c2ccc(-c3ccc(-c4c[nH]c([C@@H](NC(=O)C(=O)N(CC(F)(F)F)C(C)C)C(C)(C)C)n4)cc3)cc2)c[nH]1)C(C)(C)C [Compound W-66] | >100
CC(C)(C)[C@H](NC(=O)c1ccccc1O)c1nc(-c2ccc(-c3ccc(-c4c[nH]c([C@@H](NC(=O)c5ccccc5O)C(C)(C)C)n4)cc3)cc2)c[nH]1 [Compound Y-72] | >100
O=C(c1ccc2ccccc2n1)N1CCC[C@H]1c1ncc(-c2ccc(-c3ccc(-c4cnc([C@@H]5CCCN5C(=O)c5ccc6ccccc6n5)[nH]4)cc3)cc2)[nH]1 [Compound S-123] | >100

SMILES | Fold-Synergistic 1a (Q30E) [fold]
O=C(c1ccccc1)N1CCC[C@H]1c1ncc(-c2ccc(-c3ccc(-c4cnc([C@@H]5CCCN5C(=O)c5ccccc5)[nH]4)cc3)cc2)[nH]1 [Compound S-106] | <10
CC(C)(C)[C@H](NC(=O)Cc1ccccc1OC(F)(F)F)c1nc(-c2ccc(-c3ccc(-c4c[nH]c([C@@H](NC(=O)Cc5ccccc5OC(F)(F)F)C(C)(C)C)n4)cc3)cc2)c[nH]1 [Compound Y-73] | >100
CC(C)[C@H](NC(=O)c1ccccc1F)c1nc(-c2ccc(-c3ccc(-c4c[nH]c([C@@H](NC(=O)c5ccccc5F)C(C)C)n4)c(F)c3)cc2)c[nH]1 [Compound N-92] | >100
CC1(C)OC(=O)CC1C(=O)N[C@H](c1nc(-c2ccc(-c3ccc(-c4c[nH]c([C@@H](NC(=O)C5CC(=O)OC5(C)C)C(C)(C)C)n4)cc3)cc2)c[nH]1)C(C)(C)C (some centres unmarked) [Compound S-279] | >10
COC(C)(C)C(=O)N[C@H](c1nc(-c2ccc(-c3ccc(-c4c[nH]c([C@@H](NC(=O)C(C)(C)OC)C5(C)CC5)n4)cc3)cc2)c[nH]1)C1(C)CC1 [Compound Y-63] | >100
CC(C)(C)[C@H](NC(=O)[C@H]1C[C@@](C)(O)C1)c1nc(-c2ccc(-c3ccc(-c4c[nH]c([C@@H](NC(=O)[C@H]5C[C@@](C)(O)C5)C(C)(C)C)n4)cc3)cc2)c[nH]1 [Compound W-169] | >100
O=C(Cc1cccc2ccccc12)N1CCC[C@H]1c1ncc(-c2ccc(-c3ccc(-c4cnc([C@@H]5CCCN5C(=O)Cc5cccc6ccccc56)[nH]4)cc3)cc2)[nH]1 [Compound S-144] | >10
CC(C)[C@H](NC(=O)C1CC(F)(F)C1)c1nc(-c2ccc3c(c2)Cc2cc(-c4c[nH]c([C@@H](NC(=O)C5CC(F)(F)C5)C(C)C)n4)ccc2-3)c[nH]1 [Compound N-71] | >100
C=C1C[C@@H](C(=O)N[C@H](c2nc(-c3ccc(-c4ccc(-c5c[nH]c([C@@H](NC(=O)[C@@H]6CC(=C)CN6C(=O)OC(C)(C)C)C(C)C)n5)cc4)cc3)c[nH]2)C(C)C)N(C(=O)OC(C)(C)C)C1 [Compound W-89] | >100
CC(C)(C(=O)N[C@H](c1nc(-c2ccc(-c3ccc(-c4c[nH]c([C@@H](NC(=O)C(C)(C)C(=O)N5CC[C@H](O)C5)C(C)(C)C)n4)cc3)cc2)c[nH]1)C(C)(C)C)C(=O)N1CC[C@H](O)C1 [Compound W-152] | >100
CC(C)(C)[C@H](NC(=O)C(=O)c1cccs1)c1nc(-c2ccc(-c3ccc(-c4c[nH]c([C@@H](NC(=O)C(=O)c5cccs5)C(C)(C)C)n4)cc3)cc2)c[nH]1 [Compound W-19] | >100
COC12CCC(C(=O)N[C@H](c3nc(-c4ccc(-c5ccc(-c6c[nH]c([C@@H](NC(=O)C78CCC(OC)(CC7)CC8)C(C)(C)C)n6)cc5)cc4)c[nH]3)C(C)(C)C)(CC1)CC2 [Compound S-293] | >100
CN(C)C(=O)OC1(C(=O)N[C@H](c2nc(-c3ccc(-c4ccc(-c5c[nH]c([C@@H](NC(=O)C6(OC(=O)N(C)C)CC6)C(C)(C)C)n5)cc4)cc3)c[nH]2)C(C)(C)C)CC1 [Compound L-29] | >100
Cc1cn(CCC(=O)N2CCC[C@H]2c2ncc(-c3ccc(-c4ccc(-c5cnc([C@@H]6CCCN6C(=O)CCn6cc(C)c7ccccc76)[nH]5)cc4)cc3)[nH]2)c2ccccc12 [Compound S-153] | >10
CC(C)(C)[C@H](NC(=O)C1CCC(F)(F)CC1)c1nc(-c2ccc(-c3cnc(-c4c[nH]c([C@@H](NC(=O)C5CCC(F)(F)CC5)C(C)(C)C)n4)cn3)cc2)c[nH]1 [Compound N-104] | >100
COc1ccc2c(C(=O)N3CCC[C@H]3c3ncc(-c4ccc(-c5ccc(-c6cnc([C@@H]7CCCN7C(=O)c7nc(Cl)cc8cc(OC)ccc78)[nH]6)cc5)cc4)[nH]3)nc(Cl)cc2c1 [Compound S-204] | >100
O=C(c1ccnc2ccccc12)N1CCC[C@H]1c1ncc(-c2ccc(-c3ccc(-c4cnc([C@@H]5CCCN5C(=O)c5ccnc6ccccc56)[nH]4)cc3)cc2)[nH]1 [Compound S-125] | <10
CO[C@H](C)C(=O)N[C@H](c1nc(-c2ccc(-c3ccc(-c4c[nH]c([C@@H](NC(=O)[C@@H](C)OC)C(C)(C)C)n4)cc3)cc2)c[nH]1)C(C)(C)C [Compound L-80] | >100
O=C(c1cccs1)N1CCC[C@H]1c1ncc(-c2ccc(-c3ccc(-c4cnc([C@@H]5CCCN5C(=O)c5cccs5)[nH]4)cc3)cc2)[nH]1 [Compound S-182] | <10
CC(C)(C)[C@H](NC(=O)C(=O)N1CCCC1)c1nc(-c2ccc(-c3ccc(-c4c[nH]c([C@@H](NC(=O)C(=O)N5CCCC5)C(C)(C)C)n4)cc3)cc2)c[nH]1 [Compound W-21] | >100
